Assay results: US8461297B2, “Cytoplasmic malate dehydrogenase (MDH1) targeted treatment for neurodegenerative diseases” (Ramot at Tel-Aviv University, Ltd., priority 2007, dated 2013)
Ends that are not written are not given here. 5,6‑TAMRA = 5,6-carboxytetramethylrhodamine fluorescent label at the N-terminus

Key:
Format in all cases: cell-based
[1] = biological target: T1, G93A-hSOD1/cytMDH complex (Homo sapiens, UniProt P00441, G94A); experiment: FACS-based FRET test of peptides competing for the G93A-hSOD1-CFP/cytMDH-YFP interaction in co-transfected NSC-34 cells; conditions: myc-tagged peptide expression plasmid co-transfected at 1:1:1 ratio, excitation 405 nm, emission 530 nm
T1 construct: expressed in transfected cells; host or cells: NSC-34 cells (transient co-transfection)
Description: The screening method was based on the fluorescence resonance energy transfer (FRET) system between cyan fluorescence protein (CFP) chimera proteins and yellow fluorescence protein (YFP) chimera proteins. The present inventors designed and used this system to identify the specific interaction of G93A SOD1 with MDH1 so as to identify a motif within MDH1 that is critical for the G93A SOD1-MDH1 interaction. The agents tested were peptides derived from MDH1.
A Myc-tagged peptide library expressing small fragments of the MDH1 was prepared. MDH1 cDNA was digested with AluI or/and DpnI and the fragments were cloned so that each peptide was placed in the correct reading frame of the original protein and in frame to the human myc tag sequence. G93A SOD1-CFP and MDH1-YFP expression plasmids were transfected into NSC-34 cells with and without the myc-tagged library.
The hypothesis is that the specific MDH1-derived peptides comprising the interacting motif will compete with MDH1 for the G93A SOD1-MDH1 interaction site. In such case, the CFP and YFP fluorescence of the G93A SOD1-CFP and MDH1-YFP will still be present, but the FRET signal will be diminished. The screening studies were performed using a cell sorter (FACS) with 405 nm excitation laser and a 530/30 nm emission filter. […] RNA was extracted from the sorted cells, converted into cDNA and subjected to PCR amplification in order to amplify the peptides DNA sequences.
The DNA sequence from the sorted cells was re-cloned. Four clones were obtained, one corresponding to amino acids 14-27 of the cytMDH protein GQIAHSLLYSIGNG (SEQ ID NO: 2) and three corresponding to amino acids 217-239 of the cytMDH protein […] (SEQ ID NO: 1). The identified clones were re-analyzed in the FACS-based system to verify their ability to compete for the G93A SOD1-MDH1 interaction at 1:1:1 ratio levels. Thus, 5*10^6 NSC-34 cells were transfected with equal amounts of G93A-hSOD1-CFP and cytMDH-YFP and the suspected myc-tagged cytMDH peptide-expressing plasmids.
Ability of the 217-239 peptide to disrupt the G93A-hSOD1-cytMDH1 complex was tested by co-transfection into NSC-34 cells of constructs encoding myc-tagged 217-239 and the FRET-enabled G93A-hSOD1/cytMDH proteins, followed by FACS analysis to measure FRET.

[2] = test system: WT-hSOD1-GFP-expressing NSC-34 cells; experiment: Cell survival (methylene blue assay) under rotenone or low-glucose challenge, WT-hSOD1-GFP cells
Experimental: (§1) The functional significance of the loss of such interaction was assessed by alleviation of the rotenone (a mitochondrial inhibitor) or low-glucose challenge in NSC-34 clones expressing an inducible form of the mutant G93A SOD1-GFP as monitored by cell survival. The […] (SEQ ID NO: 1) peptide was synthesized (SBS Gentech Beijing) with 5,6-TAMRA modification (to allow detection) at the N-terminus. The TAMRA-modified peptide was dissolved in 10% acetic acid and added to cell culture medium in culture medium containing 1% ethanol. Thus, 15,000 cells (WT-hSOD1 or G93A-hSOD1) seeded in each well of a 96-well plate in DMEM, 10% serum. 24 hours later, cells were incubated with 1*10^-6M cytMDH peptide (or acetic acid/ethanol vehicle) for 4 h without serum. 1-10 micromole/L Rotenone in DMEM, 10% serum was then added for 24 hours, or medium replaced with low glucose (1 mg/ml) in DMEM with 5% serum for 72 hours. Cell survival was then assessed. It was expected that if the identified peptide interaction is resolving the gain of toxic interaction of G93A SOD1-GFP, then survival of the cells upon rotenone- or low-glucose challenge will improve.
(§2) 15,000 cells (WT-hSOD1 or G93A-hSOD1) were seeded in each well of a 96 well-plate in DMEM, 10% serum. 24 hours later, the cells were incubated with 3 mM octanoic acid with and without 1-10 micromole/L rotenone in DMEM, 10% serum for 24 hours. Or, cells were incubated with 3 mM octanoic acid and medium replaced with regular ([…]) or low (1 mg/ml) glucose in DMEM with 5% serum for 72 hours. Cell survival was then assessed. It was expected that if the gain of toxic interaction of G93A SOD1-GFP is due to inhibition of the malate-aspartate shuttle, octanoic acid will provide an alternative energy source through the alternative shunt and the survival of the cells upon rotenone or low-glucose challenge will improve.
(§3) Cell survival was assessed by the methylene blue assay. Cells were fixed with 4% formaldehyde solution for 1 h, then washed with 0.1M sodium borate buffer pH8.5, stained with 1% methylene blue for 20 min and washed with water. Cell-bound dye was eluted with 200 μl of 0.1M HCl. The optical density was assessed at 595 nm in ELISA plate reader.
(§4) The […] (SEQ ID NO: 1) peptide was synthesized (SBS Gentech Beijing) with 5,6-TAMRA modification (to allow detection) at the N-terminus, dissolved in 10% acetic acid, and diluted in cell culture medium containing 1% ethanol. Thus, 15,000 cells (WT-hSOD1 or G93A-hSOD1) seeded in each well of 96 wells plate in DMEM, 10% serum and doxycline (to induce expression of the hSOD1 proteins). 24 hours later, medium was replaced with serum free DMEM, and cells were incubated with 1 micromol/liter of the TAMRA-labeled […] peptide or vehicle (1% acetic acid/ethanol) for 4 hours. […] Cell survival was then assessed.

[3] = test system: G93A-hSOD1-GFP-expressing NSC-34 cells; experiment: Cell survival (methylene blue assay) under rotenone or low-glucose challenge, G93A-hSOD1-GFP cells
Experimental: as §1, §2, §3, §4

T1 sequence (P00441 2-154 G94A limits assumed, one chain of several): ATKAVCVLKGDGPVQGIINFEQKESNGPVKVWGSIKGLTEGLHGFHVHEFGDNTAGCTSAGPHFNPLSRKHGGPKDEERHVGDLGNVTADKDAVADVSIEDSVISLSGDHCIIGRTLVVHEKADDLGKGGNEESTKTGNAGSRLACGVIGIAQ

Row | Molecule | FRET signal of G93A-hSOD1-CFP/cytMDH-YFP (disruption of the complex) [1] | FRET signal of G93A-hSOD1-CFP/cytMDH-YFP (disruption of the complex) ([1]; listed as peptide 14-27) | effects of low glucose on cell viability in the presence of octanoic acid ([2]; 3 mM octanoic acid, low (1 mg/ml) glucose DMEM, 5% serum, 72 h, WT-hSOD1-GFP cells) | effects of rotenone on cell viability in the presence of octanoic acid ([2]; 3 mM octanoic acid, rotenone 1.25 micromol/liter for 24 h, WT-hSOD1-GFP cells) | effects of low glucose on cell viability in the presence of octanoic acid ([3]; 3 mM octanoic acid, low (1 mg/ml) glucose DMEM, 5% serum, 72 h, G93A-hSOD1-GFP cells) | effects of rotenone on cell viability in the presence of octanoic acid ([3]; 3 mM octanoic acid, rotenone 1.25 micromol/liter for 24 h, G93A-hSOD1-GFP cells) | FRET signal of G93A-hSOD1-CFP/cytMDH-YFP (disruption of the complex) ([1]; listed as SEQ ID NO: 1) | FRET signal of G93A-hSOD1-CFP/cytMDH-YFP (disruption of the complex) ([1]; listed as peptide 217-239) | effects of rotenone on cell viability in the presence of peptide ([2]; 1 micromol/liter TAMRA-labeled peptide 4 h, then 0.5 micromol/L rotenone 24 h, WT-hSOD1-GFP cells) | effects of low glucose on cell viability in the presence of peptide ([2]; 1 micromol/liter TAMRA-labeled peptide, low glucose (1 mg/ml) DMEM, 5% serum, 72 h, WT-hSOD1 cells) | effects of rotenone on cell viability in the presence of peptide ([3]; 1 micromol/liter TAMRA-labeled peptide 4 h, then 0.5 micromol/L rotenone 24 h, G93A-hSOD1-GFP cells) | effects of low glucose on cell viability in the presence of peptide ([3]; 1 micromol/liter TAMRA-labeled peptide, low glucose (1 mg/ml) DMEM, 5% serum, 72 h, G93A-hSOD1 cells)
1 | GQIAHSLLYSIGNG (listed as Mus musculus) [14-27 peptide] | found not to inhibit the interaction | positive FRET |  |  |  |  |  |  |  |  |  | 
2 | CCCCCCCC(=O)O [octanoic acid, reference compound] |  |  | not | not | greatly diminished | greatly diminished |  |  |  |  |  | 
3 | SWLKGEFITTVQQRGAAVIKARK ({5,6‑TAMRA}-SWLKGEFITTVQQRGAAVIKARK; listed as Mus musculus) [217-239 peptide, amino acids 217-239 of the cytMDH protein] | blocked FRET |  |  |  |  |  | prevented the FRET | negative FRET | not | not | greatly diminished | significantly diminished
